# What was measured:
# MRP1 = target: T1, MRP1 (Homo sapiens, UniProt P33527); assay: shRNA-mediated MRP1 knock-down, glucuronide excretion in HeLa1A1 cells; type: cell-based; conditions: DMC 4 μM; for decrease of efflux excretion rate / decrease of metabolized fraction: MRP1 knock-down; for decrease of efflux excretion rate: Fig 9C; for decrease of metabolized fraction: Fig 9E; for increase in intracellular level: MRP1 silencing, Fig 9D
# T1 construct: BCRP, MRP1, MRP3, and MRP4 were detected in both wild-type HeLa and HeLa1A1 cells; endogenous in cells; host or cells: HeLa1A1 cells (MRP1-shRNA versus scrambled shRNA)
# Method: (§1) Prior to the assays, HeLa1A1 cells were washed twice with prewarmed (37°C) Hank’s balanced salt solution (HBSS, pH = 7.4). Subsequently, HeLa1A1 cells were pretreated and incubated with DMC (2, 4 or 8 μM) and dissolved in 2 mL of HBSS. The sampling times were selected to ensure that the plots of the amount excreted versus time remained in the linear range. At each time point (0.5, 1.0, 1.5 and 2.0 h), 200 μL of incubation solutions were collected from each well, and an equal volume of loading media was used to replenish each well. Then, the collected samples were each mixed with 100 μL of ice-cold acetonitrile. The supernatants (8.0 μL) were subjected to an ultra high-performance liquid chromatography (UHPLC) analysis after centrifugation (10 min at 13,800 g).
# (§2) Furthermore, the excretion rates of generated glucuronides were calculated using Eq (1). In addition, the fraction metabolized (fmet) value was defined as the fraction of the dose metabolized based on Eq (2). V represents the volume of the incubation medium, C represents the concentration of excreted glucuronides, and t represents the incubation time.
# (§3) The shRNA plasmids targeting the efflux transporters BCRP, MRP1, MRP3 and MRP4 were constructed using previously described methods. HeLa1A1 cells were transiently transfected with the corresponding shRNA plasmids. The procedures for the establishment of HeLa1A1-BCRP-shRNA cells, HeLa1A1-MRP1-shRNA cells, HeLa1A1-MRP3-shRNA cells and HeLa1A1-MRP4-shRNA cells are detailed in our previous publication. Moreover, levels of the BCRP, MRP1, MRP3 and MRP4 proteins in these constructed HeLa1A1 cells were determined by western blotting assays, as described previously.
# MRP3 = target: T2, MRP3 (Homo sapiens, UniProt O15438); assay: shRNA-mediated MRP3 knock-down, glucuronide excretion in HeLa1A1 cells; type: cell-based; conditions: DMC 4 μM; for decrease of fmet value: MRP3 partial knock-down, Fig 10E; for decrease in efflux excretion clearance / increase in intracellular level: MRP3 silencing; for decrease in efflux excretion clearance: Fig 10C; for increase in intracellular level: Fig 10D
# T2 construct: BCRP, MRP1, MRP3, and MRP4 were detected in both wild-type HeLa and HeLa1A1 cells; endogenous in cells; host or cells: HeLa1A1 cells (MRP3-shRNA versus scrambled shRNA)
# Method: as §1, §2, §3
# BCRP = target: T3, BCRP (Homo sapiens, UniProt Q9UNQ0); assay: shRNA-mediated BCRP knock-down, glucuronide excretion in HeLa1A1 cells; type: cell-based; parameters: BCRP, MRP1, MRP3, and MRP4 were detected in both wild-type HeLa and HeLa1A1 cells; endogenous in cells; host or cells: HeLa1A1 cells; conditions: BCRP silencing, DMC 4 μM; for reduction of efflux excretion rate: Fig 8C; for increase of intracellular level: Fig 8D; for decrease in fmet value: Fig 8E
# T3 sequence (Q9UNQ0 1-655): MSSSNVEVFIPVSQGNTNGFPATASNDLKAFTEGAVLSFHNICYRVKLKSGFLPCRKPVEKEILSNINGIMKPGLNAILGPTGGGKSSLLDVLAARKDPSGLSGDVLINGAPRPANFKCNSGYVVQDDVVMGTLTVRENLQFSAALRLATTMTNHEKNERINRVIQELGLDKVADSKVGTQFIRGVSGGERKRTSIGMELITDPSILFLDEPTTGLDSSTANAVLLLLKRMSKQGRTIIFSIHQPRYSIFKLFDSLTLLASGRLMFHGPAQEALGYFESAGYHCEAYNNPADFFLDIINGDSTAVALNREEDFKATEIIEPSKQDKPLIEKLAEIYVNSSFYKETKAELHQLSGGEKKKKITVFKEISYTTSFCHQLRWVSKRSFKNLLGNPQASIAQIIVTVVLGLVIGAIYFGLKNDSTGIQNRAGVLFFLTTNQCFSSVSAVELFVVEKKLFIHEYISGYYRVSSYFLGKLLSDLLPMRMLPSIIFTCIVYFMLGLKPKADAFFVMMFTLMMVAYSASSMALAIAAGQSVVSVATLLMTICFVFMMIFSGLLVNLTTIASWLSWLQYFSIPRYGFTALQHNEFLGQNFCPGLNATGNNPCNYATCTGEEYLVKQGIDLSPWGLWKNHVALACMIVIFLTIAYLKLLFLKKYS
# Method: as §1, §2, §3
# UGT1A1 = target: T4, UGT1A1 (Homo sapiens, UniProt P22309); assay: Chemical inhibition of DMC-O-glucuronidation by UGT1A1 inhibitors in HeLa1A1 cell lysate; type: biochemical; parameters: expressed in transfected cells; host or cells: HeLa cells stably overexpressing UGT1A1 (HeLa1A1), used as cell lysate; conditions: DMC 4 μM, HeLa1A1 cell lysate 2.3 mg/mL
# T4 sequence (P22309 26-533): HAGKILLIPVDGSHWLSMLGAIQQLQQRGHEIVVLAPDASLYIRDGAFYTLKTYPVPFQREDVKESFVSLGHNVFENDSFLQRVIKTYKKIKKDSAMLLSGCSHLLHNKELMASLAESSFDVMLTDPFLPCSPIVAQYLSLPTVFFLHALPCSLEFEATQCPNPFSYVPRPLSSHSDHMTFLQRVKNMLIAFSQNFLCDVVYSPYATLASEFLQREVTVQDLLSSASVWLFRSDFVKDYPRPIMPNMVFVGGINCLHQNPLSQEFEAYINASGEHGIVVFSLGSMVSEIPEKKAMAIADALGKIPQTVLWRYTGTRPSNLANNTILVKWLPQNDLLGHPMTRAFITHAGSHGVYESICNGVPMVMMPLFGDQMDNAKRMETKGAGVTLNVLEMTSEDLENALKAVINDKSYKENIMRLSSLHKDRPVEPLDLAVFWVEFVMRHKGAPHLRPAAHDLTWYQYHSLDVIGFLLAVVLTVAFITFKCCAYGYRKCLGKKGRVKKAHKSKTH
# Method: The glucuronidation assay was performed as previously described. Briefly, alamethicin (22 μg/mL), D-saccharic-1,4-lactone (4.4 mM), MgCl2 (0.88 mM), UGT1A1 (1.0 mg/mL) or HeLa1A1 cell lysates (2.3 mg/mL) and DMC (0.5 to 40 μM) were mixed in a 50 mM Tris buffer (pH 7.4). After a preincubation at 37°C for 5 min, UDPGA (3.5 mM) was added to the incubation system, and the mixture was further incubated. After 30 min, the reactions were terminated by the addition of ice-cold acetonitrile (200 μL). The mixed samples were centrifuged at 13,800 x g for 10 min, and the supernatant was analyzed using UHPLC.
# Analyses of chemical inhibition and activity correlations were performed as two additional independent assays to determine the roles of the UGT1A1 enzyme. In these studies, nilotinib (10 μM), glycyrrhetinic acid (20 μM) and protopanaxatriol (500 μM) were used as UGT1A1 inhibitors to investigate the metabolic activities of DMC (4 μM). The incubation conditions were the same as those used for the glucuronidation activity assays.
# BCRP transporter = system: BCRP transporter; parameters: method as in PMID 12477054; conditions: cited from earlier work
# T1 sequence (P33527 whole entry): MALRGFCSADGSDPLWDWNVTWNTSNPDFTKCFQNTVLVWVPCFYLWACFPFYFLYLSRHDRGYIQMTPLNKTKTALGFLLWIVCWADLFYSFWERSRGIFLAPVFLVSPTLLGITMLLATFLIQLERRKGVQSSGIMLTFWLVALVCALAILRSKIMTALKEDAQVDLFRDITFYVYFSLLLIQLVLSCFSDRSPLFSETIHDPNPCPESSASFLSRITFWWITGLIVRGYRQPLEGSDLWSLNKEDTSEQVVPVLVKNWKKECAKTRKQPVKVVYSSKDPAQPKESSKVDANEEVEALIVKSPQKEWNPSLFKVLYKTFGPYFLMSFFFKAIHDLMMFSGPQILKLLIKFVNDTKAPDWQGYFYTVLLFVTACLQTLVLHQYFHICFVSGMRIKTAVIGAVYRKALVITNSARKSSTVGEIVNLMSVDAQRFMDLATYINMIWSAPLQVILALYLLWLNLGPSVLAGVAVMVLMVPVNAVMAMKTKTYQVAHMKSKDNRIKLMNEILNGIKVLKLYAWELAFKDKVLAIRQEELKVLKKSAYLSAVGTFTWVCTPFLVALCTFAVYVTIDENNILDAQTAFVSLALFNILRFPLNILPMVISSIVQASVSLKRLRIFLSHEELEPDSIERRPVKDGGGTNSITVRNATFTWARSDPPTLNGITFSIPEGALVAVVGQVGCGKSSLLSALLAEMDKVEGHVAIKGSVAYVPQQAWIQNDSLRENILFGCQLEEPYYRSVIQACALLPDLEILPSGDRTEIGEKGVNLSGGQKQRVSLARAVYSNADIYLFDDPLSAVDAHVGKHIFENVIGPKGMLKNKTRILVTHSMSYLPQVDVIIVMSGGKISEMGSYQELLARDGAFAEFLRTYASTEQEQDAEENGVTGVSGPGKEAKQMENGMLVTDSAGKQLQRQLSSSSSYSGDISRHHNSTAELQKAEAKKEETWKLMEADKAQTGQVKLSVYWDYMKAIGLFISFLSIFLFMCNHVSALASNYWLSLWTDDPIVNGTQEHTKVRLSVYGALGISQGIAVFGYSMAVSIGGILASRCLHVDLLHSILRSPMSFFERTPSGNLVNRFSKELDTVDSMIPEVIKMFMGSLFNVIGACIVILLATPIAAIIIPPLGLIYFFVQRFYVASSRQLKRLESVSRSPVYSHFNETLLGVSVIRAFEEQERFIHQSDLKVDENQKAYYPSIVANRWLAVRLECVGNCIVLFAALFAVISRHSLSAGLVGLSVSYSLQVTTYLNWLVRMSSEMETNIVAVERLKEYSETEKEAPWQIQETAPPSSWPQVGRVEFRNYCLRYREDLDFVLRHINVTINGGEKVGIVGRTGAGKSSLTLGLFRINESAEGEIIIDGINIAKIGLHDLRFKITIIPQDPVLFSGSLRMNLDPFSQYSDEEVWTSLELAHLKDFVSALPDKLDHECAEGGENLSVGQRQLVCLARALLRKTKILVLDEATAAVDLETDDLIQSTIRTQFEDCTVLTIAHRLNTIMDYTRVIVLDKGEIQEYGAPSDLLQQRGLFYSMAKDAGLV
# T2 sequence (O15438 whole entry): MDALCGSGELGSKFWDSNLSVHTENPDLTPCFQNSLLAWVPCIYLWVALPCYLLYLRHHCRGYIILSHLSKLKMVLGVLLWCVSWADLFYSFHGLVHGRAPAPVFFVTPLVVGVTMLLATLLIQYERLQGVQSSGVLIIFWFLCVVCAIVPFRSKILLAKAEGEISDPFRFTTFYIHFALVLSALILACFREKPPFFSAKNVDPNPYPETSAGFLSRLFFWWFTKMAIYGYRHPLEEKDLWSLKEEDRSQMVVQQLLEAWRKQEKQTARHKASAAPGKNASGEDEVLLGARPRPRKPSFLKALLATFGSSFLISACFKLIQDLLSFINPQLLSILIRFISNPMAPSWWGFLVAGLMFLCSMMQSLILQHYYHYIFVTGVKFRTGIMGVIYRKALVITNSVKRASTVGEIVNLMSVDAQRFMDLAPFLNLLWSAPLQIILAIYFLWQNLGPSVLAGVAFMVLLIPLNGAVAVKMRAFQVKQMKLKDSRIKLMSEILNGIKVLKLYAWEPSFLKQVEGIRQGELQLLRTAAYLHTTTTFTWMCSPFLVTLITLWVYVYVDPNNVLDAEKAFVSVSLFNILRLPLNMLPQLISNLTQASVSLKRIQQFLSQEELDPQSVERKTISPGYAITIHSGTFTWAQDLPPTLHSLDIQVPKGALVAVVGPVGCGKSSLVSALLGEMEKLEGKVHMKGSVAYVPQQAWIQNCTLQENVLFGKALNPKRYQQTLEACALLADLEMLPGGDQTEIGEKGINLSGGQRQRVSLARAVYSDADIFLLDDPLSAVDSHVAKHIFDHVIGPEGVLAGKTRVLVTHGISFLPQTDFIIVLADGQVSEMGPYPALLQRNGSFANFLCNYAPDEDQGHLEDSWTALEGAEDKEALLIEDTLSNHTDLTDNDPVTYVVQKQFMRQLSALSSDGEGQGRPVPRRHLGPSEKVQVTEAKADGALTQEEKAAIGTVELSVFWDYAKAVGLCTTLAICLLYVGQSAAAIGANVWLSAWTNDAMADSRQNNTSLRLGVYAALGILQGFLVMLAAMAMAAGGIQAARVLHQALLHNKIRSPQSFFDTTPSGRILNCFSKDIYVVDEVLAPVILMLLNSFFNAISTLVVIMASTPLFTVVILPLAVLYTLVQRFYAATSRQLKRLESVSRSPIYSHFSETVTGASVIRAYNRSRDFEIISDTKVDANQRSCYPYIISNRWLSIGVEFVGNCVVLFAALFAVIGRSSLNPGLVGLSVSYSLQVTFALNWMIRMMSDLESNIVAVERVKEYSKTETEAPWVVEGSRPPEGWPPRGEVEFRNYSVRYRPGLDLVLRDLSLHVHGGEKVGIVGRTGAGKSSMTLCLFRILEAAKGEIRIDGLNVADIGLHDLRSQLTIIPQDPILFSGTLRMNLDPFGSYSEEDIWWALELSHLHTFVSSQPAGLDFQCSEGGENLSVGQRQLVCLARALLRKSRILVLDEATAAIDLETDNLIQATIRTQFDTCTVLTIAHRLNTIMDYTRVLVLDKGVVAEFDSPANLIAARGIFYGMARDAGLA
compound,measurement,setting,value
COc1cc(/C=C/C(=O)CC(=O)/C=C/c2ccc(O[C@@H]3O[C@H](C(=O)O)[C@@H](O)[C@H](O)[C@H]3O)cc2)ccc1O [G2],decrease of efflux excretion rate,MRP1,36.9%
same,decrease of metabolized fraction,MRP1,29.8%
same,increase in intracellular level,MRP1,36.1%
same,decrease of fmet value,MRP3,27.9%
same,decrease in efflux excretion clearance,MRP3,26.4%
same,increase in intracellular level,MRP3,32.1%
same,reduction of efflux excretion rate,BCRP,33.0%
same,increase of intracellular level,BCRP,51.6%
same,decrease in fmet value,BCRP,24.5%
COc1cc(/C=C/C(=O)CC(=O)/C=C/c2ccc(O)cc2)ccc1O[C@@H]1O[C@H](C(=O)O)[C@@H](O)[C@H](O)[C@H]1O [G1],decrease of efflux excretion rate,MRP1,20.8%
same,decrease of metabolized fraction,MRP1,16.5%
same,increase in intracellular level,MRP1,33.1%
same,decrease of fmet value,MRP3,16.2%
same,decrease in efflux excretion clearance,MRP3,19.7%
same,increase in intracellular level,MRP3,31.5%
same,reduction of efflux excretion rate,BCRP,29.9%
same,increase of intracellular level,BCRP,40.9%
same,decrease in fmet value,BCRP,20.1%
CC1(C)[C@@H](O)CC[C@]2(C)[C@H]3C(=O)C=C4[C@@H]5C[C@@](C)(C(=O)O)CC[C@]5(C)CC[C@@]4(C)[C@]3(C)CC[C@@H]12 [glycyrrhetinic acid],formation of G1 and G2,UGT1A1; inhibitor 20 μM,significantly inhibited
COc1ccc2c3c([nH]c2c1)[C@H](CC(C)C)N1C(=O)[C@H](CCC(=O)OC(C)(C)C)NC(=O)[C@@H]1C3 [Ko143],IC50,BCRP transporter,23 nM
"Cc1cn(-c2cc(NC(=O)c3ccc(C)c(Nc4nccc(-c5cccnc5)n4)c3)cc(C(F)(F)F)c2)cn1 [Nilotinib, nilotinib]",formation of G1 and G2,UGT1A1; inhibitor 10 μM,significantly inhibited
CC(C)=CCC[C@](C)(O)[C@H]1CC[C@]2(C)[C@@H]1[C@H](O)C[C@@H]1[C@@]3(C)CC[C@H](O)C(C)(C)[C@@H]3[C@@H](O)C[C@]12C [protopanaxatriol],formation of G1 and G2,UGT1A1; inhibitor 500 μM,significantly inhibited

# Source: article PMC6544300, “Mechanism of the efflux transport of demethoxycurcumin-O-glucuronides in HeLa cells stably transfected with UDP-glucuronosyltransferase 1A1” (PLoS ONE, 2019)
